According to patent publication US8466185B2, “Methods and assays for detecting and treating hypoglycemia” (priority 2008, dated 2013):
Entries after “also recorded” stand apart in the source; their conditions may differ.

Assays:
human islets [1] = experiment: in vitro perifusion, glucagon secretion from human islets; assay type: cell-based; settings: for glucagon release / glucagon secretion: agonist 100 μM, 3 mM glucose
Procedure: (§2) A high-capacity, automated perifusion system was developed to dynamically measure hormone secretion from pancreatic islets. A low pulsatility peristaltic pump pushed HEPES-buffered solution (mM: 125 NaCl, 5.9 KCl, 2.56 CaCl2, 1 MgCl2, 25 HEPES, and 0.1% BSA; pH 7.4; and a perifusion rate of 100 μL/min) through a column containing 100 pancreatic islets immobilized in Bio-Gel P-4 Gel (BioRad, Hercules, Calif.). Except otherwise stated, glucose concentration was adjusted to 3 mM for all experiments. Stimuli were applied with the perifusion buffer. The perifusate was collected in an automatic fraction collector designed for a 96 well plate format. The columns containing the islets and the perifusion solutions were kept at 37° C., and the perifusate in the collecting plate was kept at <4° C. Perifusates were collected every minute. Hormone release in the perifusate was determined with the human or mouse Endocrine LINCOplex Kit following manufacturer's instructions (Linco research, St. Charles, Mo.).

[2] = system: human islets and dispersed single islet cells; experiment: [Ca^2+]i imaging (Fura-2) of human islets and dispersed islet cells; assay type: cell-based; settings: for [Ca^2+]i response: 100 μM
Procedure: (§1) Glucose was added to give a final concentration of 3 mM. Islets or dispersed islet cells were incubated in Fura-2 AM (2 μM; 1 hour) and placed in a closed small-volume imaging chamber (Warner Instruments, Hamden, Conn.). Stimuli were applied with the bathing solution. Islets loaded with Fura-2 were excited alternatively at 340 and 380 nm with a monochromator light source (Cairn. Research Optoscan Monochromator, Cairn Research Ltd, Faversham, UK). Images were acquired with a Hamamatsu camera (Hamamatsu Corp, Japan) attached to a Zeiss Axiovert 200 microscope (Carl Zeiss, Jena, Germany). Changes in the 340/380 fluorescence emission ratio over time were analyzed in individual islets and dispersed cells using Kinetic Imaging AQM Advance software (Kinetic Imaging, N.C.). Peak changes in the fluorescence ratio constituted the response amplitude.

[3] = system: isolated human islet cells; experiment: whole-cell patch clamp recordings of dispersed human islet cells; assay type: cell-based; settings: kainate 100 μM; holding potential −70 mV
Procedure: Membrane currents were measured using whole-cell patch clamp recordings of dispersed human islet cells. All recordings were amplified using an EPC10 patch-clamp amplifier and digitized and analyzed using Patchmaster software (Heka Elektronik, Lambrecht, Germany). Pipettes were pulled from borosilicate glass capillaries on a horizontal programmable puller (DMZ Universal Puller, Zeitz-Instrumente, Augsburg, Germany). Pipettes with a resistance of 5-7 MΩ were filled with a pipette solution containing (in mM): 150 NMG (N-methyl-D-Glucamine), 10 EGTA, 1 MgCl2, 2 CaCl2, 5 HEPES and 3 Mg-ATP (pH 7.15). The bath solution contained (in mM): 138 NaCl, 5.6 KCl, 1.2 MgCl2, 2.6 CaCl2, 5 HEPES and 10 TEA (pH7.4). Cells were voltage-clamped at −70 mV. Ligands (e.g. kainate) were applied using the SF-77B Perfusion Fast-Step system (Warner Instruments, Hamden, Conn.), which allows rapid change of solutions bathing a single cell or membrane patch attached to a patch electrode. […] Thus, it is most likely that cells responding to kainate in our electrophysiological experiments were α-cells.

monkey islets [4] = experiment: microfluorometric determination of endogenous glutamate release from islets; assay type: cell-based; settings: kainate 100 μM; KCl 30 mM
Procedure: Endogenous glutamate release from pancreatic islets was measured with the Amplex Red Glutamic Acid Assay Kit (Molecular Probes) adapted for microscopic microfluorometric detection (Akagi et al., 2003). In this assay, released glutamate is a substrate in an enzymatic chain reaction that generates the highly fluorescent product resorufin (Molecular Probes, Eugene, Oreg.). L-glutamate is oxidized by glutamate oxidase to produce α-ketoglutarate, NH4, and H2O2. Hydrogen peroxide reacts with the Amplex Red reagent in a reaction catalyzed by horseradish peroxidase to generate resorufin. Pancreatic islets were allowed to attach to a glass coverslip previously coated with poly-D-lysine. The coverslip was mounted in a closed small-volume imaging chamber (Warner Instruments) and perifused with the HEPES-buffered solution containing the stimuli. Resorufin fluorescence was excited at 510 nm, and the emission recorded at 590 nm using the same imaging system used to measure [Ca^2+]i (see above).

mouse islets [5] = experiment: perifusion, glucagon secretion from mouse islets; assay type: cell-based, mouse (C57Bl/6); settings: for glucagon release / secretion: 100 μM
Procedure: as §2

mouse islets [6] = experiment: perifusion of mouse islets with β cells destroyed by streptozotocin versus intact islets; assay type: cell-based; settings: streptozotocin-treated versus intact islets
Procedure: This experiment was performed with mouse islets. Two samples were perifused in parallel (“a” and “b”). In “a” (blue curve and blue bar), but not in “b” (red curve and red bar) the β cells were selectively destroyed with streptozotocin. This absence of β cells generates type 1 diabetes-like condition in vitro. The glucagon release profile in panel “A” was obtained by using this model. […] Note that the non specific stimulus arginine is not able to differentiate a functionally impaired α cell in the absence of β cells.
At t=5 min, both samples were stimulated with 100 μM kainate for 5 min. The glucose was increased to 11 mM for 10 minutes and decreased again to 3 mM for the duration of the perifusion. At t=45 min, both samples (v) were stimulated with 5 mM Arginine. […] Kainate is a glutamate analog that is not metabolizable, and therefore a preferred agonist of the AMPA/Kainate receptors. Error bars represent the standards deviations for n=3 perifusions. Comparison were performed by an independent t-test.
For example, in some embodiments the present invention are directed to an in vitro model in which we destroy selectively the beta cells with, for example, streptozotocin, thus creating a situation that mimics type 1 diabetes. The treated islets are composed mainly of alpha cells. […] To examine if alpha cells in islets depleted of beta cells had impaired glutamate signaling, we stimulated them with kainate, an agonist for ionotropic glutamate receptors.

human islets [7] = experiment: in vitro perifusion, insulin release from human islets; settings: 100 μM
Procedure: as §2

monkey islets [8] = experiment: in vitro perifusion, insulin release from monkey islets; settings: 100 μM; not shown
[9] = system: monkey islets and dispersed single islet cells; experiment: [Ca^2+]i imaging (Fura-2) of monkey islets and islet cells; assay type: cell-based, monkey (Macacca fascicularis); settings: glutamate 100 μM
Procedure: as §1, with “Imaging of [Ca^2+]i was performed as described elsewhere (Cabrera et al., 2006). […] Glucose” for “Glucose”

human islets [10] = assay type: cell-based; settings: glutamate 100 μM
Procedure: Perifusion of the islets was stopped after addition of the stimulus to allow the islet secretory products to accumulate and then resumed after 10 minutes.

C57BL/6 mice = experiment: in vivo responses to iGluR agonists injected i.p.; set-up: species or system mouse; settings: glutamate 30 mg/kg, AMPA 15 mg/kg, i.p.
Procedure: We examined in vivo responses to iGluR agonists by injecting C57BL/6 mice i.p. with either PBS (n=4), monosodium glutamate (30 mg/kg; n=7), or AMPA (15 mg/kg; n=8). To determine whether blocking iGluRs exacerbates insulin-induced hypoglycemia, we injected the AMPA/kainate iGluR antagonist NBQX (Tocris, Ellisville, Mo.) i.p. at 20 mg/kg 30 minutes before mice were treated with insulin to induce hypoglycemia.

[11] = Beyreuther et al., 2007; cited from earlier work

Structure (SMILES): C=C(C)[C@H]1CN[C@H](C(=O)O)[C@H]1CC(=O)O [kainate]
- glucagon release / glucagon secretion (human islets [1]): stimulated large increases in glucagon secretion; also recorded: Increases in glucagon release could also be elicited
- glucagon release / glucagon secretion (human islets [1]; listed as Kainate): elicited strong glucagon secretion
- glucagon immunoreactive cells that responded to kainate [2]: 7 out of 9
- [Ca^2+]i response [2]: large increases in [Ca^2+]i
- kainate responsive cells that were glucagon immunoreactive ([2]; [Ca^2+]i imaging experiments): > 75%
- glutamate-responding cells that also responded to kainate ([2]; kainate 100 μM): 12 out of 12
- insulin immunoreactive cells that responded to kainate ([2]; n=8): None
- whole-cell inward currents [3]: elicited inward currents
- glutamate release (resorufin fluorescence) (monkey islets [4]): induced significant glutamate release; also recorded: strongly released glutamate
- glucagon release / secretion (mouse islets [5]): stimulated glucagon secretion
- reduction of amplitude of kainate-induced glucagon release in absence of β cells (mouse islets [6]; kainate 100 μM for 5 min): 55%
- kainate potentiation of glucagon release in absence versus presence of β cells (mouse islets [6]): not as effective in potentiating glucagon release; also recorded: strongly reduced glucagon responses
- insulin release (human islets [7]): Neither kainate (100 μM), glutamate (100 μM), nor AMPA (100 μM) stimulated increases in insulin release
- insulin release (monkey islets [8]): Neither kainate (100 μM), glutamate (100 μM), nor AMPA (100 μM) stimulated increases in insulin release

Structure (SMILES): N[C@@H](CCC(=O)O)C(=O)O [glutamate]
- glucagon release / glucagon secretion (human islets [1]): induced glucagon responses
- glucagon release (human islets [1]; glutamate 1 μM-1 mM): stimulated large, concentration-dependent increases in glucagon release
- cells responding to high glucose (11 mM) that did not respond to glutamate [2]: 64 out of 64
- [Ca^2+]i response [2]: elicited concentration-dependent [Ca^2+]i; responses; also recorded: increases in cytoplasmic free Ca^2+ concentration
- glutamate-responsive cells that were glucagon-immunoreactive ([2]; n=4 human preparations): 34 out of 37
- [Ca^2+]i response [9]: increases in cytoplasmic free Ca^2+ concentration
- glucagon secretion from human islets measured by [Ca^2+]i responses in biosensor cells (human islets [10]; islets on biosensor cells): large [Ca^2+]i responses; also recorded: elicited glucagon secretion from human islets
- [Ca^2+]i response of biosensor cells in the absence of islets (human islets [10]; no islets): did not respond; also recorded: No responses were seen
- glucagon release / secretion (mouse islets [5]): stimulated glucagon release
- glucagon responses to glutamate in islets from mGluR4 knockout versus control mice (mouse islets [5]; glutamate 100 μM): undistinguishable in wild type and mGluR4KO mice
- plasma insulin concentrations (C57BL/6 mice): not affected; also recorded: did not change
- plasma glucagon concentrations (C57BL/6 mice; 30 minutes after treatment): increased plasma glucagon concentrations
- plasma glucose concentrations (C57BL/6 mice; thirty minutes after injection): increased glucose levels
- blood-brain barrier penetration [11]: does not penetrate the blood-brain barrier
- insulin release (human islets [7]): Neither kainate (100 μM), glutamate (100 μM), nor AMPA (100 μM) stimulated increases in insulin release
- insulin release (monkey islets [8]): Neither kainate (100 μM), glutamate (100 μM), nor AMPA (100 μM) stimulated increases in insulin release
